Test results from patent US5525626A (priority 1989, dated 1996).

Key:
Assay in all cases: 3H-thymidine assay
Type in all cases: cell-based
[1] = tested on: Tp 242 MG glioblastoma cells; conditions: Homo sapiens
[2] = tested on: Tp 410 N neuroblastoma cells; conditions: Homo sapiens, Neuroblastoma cell
A-375 melanoma cells = conditions: Homo sapiens, A-375
K-562 leukemic cells = conditions: Homo sapiens, K562
Protocol: (§1) The cell lines were cultivated as indicated in Example 1.
(§2) The antiproliferative effect of the 1,2-benzopyrone derivatives according to the invention on the tumor cell lines in each case was shown with the help of the ^3 H-thymidine insertion and with reference to growth curves.
(§3) In a 24-well-plate, in each case 10^4 cells of the line to be investigated were inoculated per well. Approximately 48 hours later the cells were half-confluent; the medium was then changed and replaced by a medium containing the active substance in question (cf Table 3). After a further 48 hours 0.25 μCi ^3 H-thymidine (Ammersham) was added to each well and the cells were incubated for a further 24 hours. Subsequently the cultures were washed twice with ice-cold PBS and the high-molecular-weight ^3 H-radioactivity was precipitated with 5% trichloroacetic acid for one hour at 4° C. After the washing of the cells in PBS the ^3 H-radioactivity was solubilized with 0.3M NaOH and measured in the counter. The growth-inhibition was determined by comparing the thymidine insertion of the cells treated with active substance with untreated cells.
(§4) The active substance concentration in each case was so chosen that ^3 H-thymidine insertion was 50% inhibited. The active substance concentrations used under this aspect for the active substances and cell lines in each case are given in table 4 below in μM/ml, […]

[3] = tested on: MCF-7 breast cancer cells; conditions: Homo sapiens, MCF7
Protocol: as §1, §2, §3, §4

[4] = 1 μM/ml, read-out: 3H-thymidine insertion (%) of control
[5] = 2 μM/ml, read-out: 3H-thymidine insertion (%) of control
[6] = 4 μM/ml, read-out: 3H-thymidine insertion (%) of control
[7] = 8 μM/ml, read-out: 3H-thymidine insertion (%) of control
[8] = 16 μM/ml, read-out: 3H-thymidine insertion (%) of control
[9] = 25 μM/ml, read-out: 3H-thymidine insertion (%) of control
[10] = 50 μM/ml, read-out: 3H-thymidine insertion (%) of control
[11] = 100 μM/ml, read-out: 3H-thymidine insertion (%) of control
[12] = 250 μM/ml, read-out: 3H-thymidine insertion (%) of control
[13] = 500 μM/ml, read-out: 3H-thymidine insertion (%) of control
[14] = Table 4, read-out: active substance concentration at which 3H-thymidine insertion was 50% inhibited
[15] = 1 μM/ml, read-out: 3H-thymidine tracer (%) of control
[16] = 2 μM/ml, read-out: 3H-thymidine tracer (%) of control
[17] = 4 μM/ml, read-out: 3H-thymidine tracer (%) of control
[18] = 8 μM/ml, read-out: 3H-thymidine tracer (%) of control
[19] = 16 μM/ml, read-out: 3H-thymidine tracer (%) of control
[20] = 25 μM/ml, read-out: 3H-thymidine tracer (%) of control
[21] = 50 μM/ml, read-out: 3H-thymidine tracer (%) of control
[22] = 100 μM/ml, read-out: 3H-thymidine tracer (%) of control
[23] = 250 μM/ml, read-out: 3H-thymidine tracer (%) of control
[24] = 500 μM/ml, read-out: 3H-thymidine tracer (%) of control
[25] = Table 4, *: maximum usable dosage, no 50% inhibition, read-out: active substance concentration at which 3H-thymidine insertion was 50% inhibited

What does the source list for O=c1ccc2ccc(O)cc2o1 [7-OH-1,2-BP, 7-hydroxy-1,2-benzopyrone]?
activity at 1 µM [1, 4]: 93%; activity at 2 µM [1, 5]: 91%; activity at 4 µM [1, 6]: 91%; activity at 8 µM [1, 7]: 84%; activity at 16 µM [1, 8]: 73%; activity at 25 µM [1, 9]: 55%; activity at 50 µM [1, 10]: 43%; activity at 100 µM [1, 11]: 39%; activity at 250 µM [1, 12]: 35%; activity at 500 µM [1, 13]: 32%; IC50 [1, 14]: 25 µM; activity at 1 µM [2, 4]: 96%; activity at 2 µM [2, 5]: 91%; activity at 4 µM [2, 6]: 80%; activity at 8 µM [2, 7]: 73%; activity at 16 µM [2, 8]: 67%; activity at 25 µM [2, 9]: 50%; activity at 50 µM [2, 10]: 48%; activity at 100 µM [2, 11]: 42%; activity at 250 µM [2, 12]: 36%; activity at 500 µM [2, 13]: 21%; IC50 [2, 14]: 25 µM; activity at 1 µM (A-375 melanoma cells; [15]): 100%; activity at 2 µM (A-375 melanoma cells; [16]): 92%; activity at 4 µM (A-375 melanoma cells; [17]): 86%; activity at 8 µM (A-375 melanoma cells; [18]): 81%; activity at 16 µM (A-375 melanoma cells; [19]): 72%; activity at 25 µM (A-375 melanoma cells; [20]): 64%; activity at 50 µM (A-375 melanoma cells; [21]): 53%; activity at 100 µM (A-375 melanoma cells; [22]): 49%; activity at 250 µM (A-375 melanoma cells; [23]): 47%; activity at 500 µM (A-375 melanoma cells; [24]): 44%; IC50 (A-375 melanoma cells; [25]): 100 µM; activity at 1 µM (K-562 leukemic cells; [15]): 100%; activity at 2 µM (K-562 leukemic cells; [16]): 91%; activity at 4 µM (K-562 leukemic cells; [17]): 84%; activity at 8 µM (K-562 leukemic cells; [18]): 76%; activity at 16 µM (K-562 leukemic cells; [19]): 67%; activity at 25 µM (K-562 leukemic cells; [20]): 53%; activity at 50 µM (K-562 leukemic cells; [21]): 47%; activity at 100 µM (K-562 leukemic cells; [22]): 42%; activity at 250 µM (K-562 leukemic cells; [23]): 39%; activity at 500 µM (K-562 leukemic cells; [24]): 37%; IC50 (K-562 leukemic cells; [14]): 50 µM; activity at 1 µM [3, 15]: 98%; activity at 2 µM [3, 16]: 94%; activity at 4 µM [3, 17]: 88%; activity at 8 µM [3, 18]: 82%; activity at 16 µM [3, 19]: 75%; activity at 25 µM [3, 20]: 69%; activity at 50 µM [3, 21]: 62%; activity at 100 µM [3, 22]: 51%; activity at 250 µM [3, 23]: 43%; activity at 500 µM [3, 24]: 29%; IC50 [3, 25]: 100 µM
